Test results from ChEMBL document CHEMBL1128877, “Isosinococuline, a novel antitumor morphinane alkaloid from Cocculus trilobus” (1995).

Test system: Mus musculus
Test: In vivo antitumor activity against P-388 leukemia in mice was determined at 25 mg/kg/day level
Assay type: functional

COC1=C2C(N)Cc3cc(OC)c(O)cc3C2C[C@H](O)[C@@H]1O (stereo partly specified)
T/C: 146%
